This passage reports IC50 results from patent publication US6977261B2, “Azaisoquinoline derivatives as matrix metalloproteinase inhibitors” (Warner-Lambert Company LLC, priority 2002, dated 2005).

The test concerns the target human MMP-13 catalytic domain (hMMP-13CD) (Homo sapiens, UniProt P45452). Briefly: Inhibition of MMP-13 catalytic domain (thiopeptolide substrate assay). It counts as biochemical. From the text: The assays measure the amount by which a test compound reduces the hydrolysis of a thiopeptolide substrate catalyzed by a matrix metalloproteinase enzyme. Such assays are described in detail by Ye et al., in Biochemistry, 1992;31(45):11231-11235, which is incorporated herein by reference. One such assay is described below in Biological Method 1.
Some of the particular methods described below use the catalytic domain of the MMP-13 enzyme, namely matrix metalloproteinase-13 catalytic domain (“MMP-13CD”), rather than the corresponding full-length enzyme, MMP-13. It has been shown previously by Ye Qi-Zhuang, Hupe D., and Johnson L. (Current Medicinal Chemistry, 1996;3:407-418) that inhibitor activity against a catalytic domain of an MMP is predictive of the inhibitor activity against the respective full-length MMP enzyme.
Thiopeptolide substrates show virtually no decomposition or hydrolysis at or below neutral pH in the absence of a matrix metalloproteinase enzyme. A typical thiopeptolide substrate commonly utilized for assays is Ac-Pro-Leu-Gly-thioester-Leu-Leu-Gly-OEt. […] The change in absorbance at 405 nm is monitored on a Thermo Max microplate reader (molecular Devices, Menlo Park, Calif.) at room temperature (22° C.). […]
Some representative compounds of Formula I have been evaluated for their ability to inhibit MMP-13. […]

As for `O=C(O)c1ccc(Cn2ccc3ccc(C#CCn4ccnn4)cc3c2=O)cc1` [4-[1-oxo-7-(3-[1,2,3]triazol-1-ylprop-1-ynyl)-1H-isoquinolin-2-ylmethyl]benzoic acid], the IC50 was greater than 50 µM.
